# Source: patent US20160102058A1, “FLUORO-PERHEXILINE COMPOUNDS AND THEIR THERAPEUTIC USE” (THE UNIVERSITY COURT OF THE UNIVERSITY OF ABERDEEN, priority 2013, published 2016)
# How the values were obtained:
# [1] = cited from earlier work
# [2] = Rat liver microsomal (RLM) stability assay; assay type: in vitro ADME; details: both sexes, pH 7.4, rat liver microsomes, 3 μM test compound
# Protocol: (§1) The metabolic stability of fluoroperhexiline derivatives was measured by determination of the rate of compound disappearance when incubated in the presence of both human and rat liver microsomes. Liver microsomes are prepared from the endoplasmic reticulum of hepatocytes and are the primary source of the most important enzymes (cytochrome P450) involved in drug metabolism. Study of drug stability in the presence of liver microsomes is accepted as a valuable model permitting rapid prediction of in vivo drug stability.
# (§2) Human and rat liver microsomes were obtained from a commercial source. Test compounds (3 μM) were incubated with pooled liver microsomes (male and female). Samples were incubated for a 45 minute period and removed at 5 time points and test compounds were analysed by LC-MS/MS.
# (§3) Microsomes (final protein concentration 0.5 mg/mL), 0.1 M phosphate buffer pH 7.4, and test compound (final concentration 3 μM; diluted from 10 mM stock solution to give a final DMSO concentration of 0.25%) were incubated at 37° C. prior to the addition of NADPH (final concentration 1 mM) to initiate the reaction. The final incubation volume was 25 μL. A control incubation was included for each compound tested, where 0.1 M phosphate buffer pH 7.4 was added instead of NADPH. The control compounds testosterone and 7-hydroxycoumarin were included in each experiment and all incubations were performed singularly for each compound.
# (§4) Each compound was incubated for 0, 5, 15, 30, and 45 minutes. The control (minus NADPH) was incubated for 45 minutes only. The reactions were stopped by the addition of 50 μL methanol containing internal standard at the appropriate time points. The incubation plates were centrifuged at 2500 rpm for 20 minutes at 4° C. to precipitate the protein.
# (§5) Following protein precipitation, the sample supernatants were combined in cassettes of up to 4 compounds and analysed using standard LC-MS/MS conditions.
# (§6) From a plot of the natural logarithm of the peak area ratio (i.e., the ratio of compound peak area:internal standard peak area) against time, the gradient of the line was determined. Subsequently, half-life and intrinsic clearance were calculated using the equations below:
# (§7) Eliminated Rate Constant (k)=(−Gradient).
# (§8) Half-Life (t1/2) (min)=0.063/k.
# (§9) Intrinsic Clearance (CLint) […]=(V×0.693)/t1/2. • wherein V=Incubation Volume (μL/mg microsomal protein).
# CYP2D6 = target: T1, CYP2D6 (Homo sapiens, UniProt P10635); test: Cytochrome P450 2D6 reaction phenotyping (Bactosomes); assay type: in vitro ADME
# T1 construct: purchased Cypex Ltd; host or cells: bacterial membranes (Bactosomes)
# Protocol: The stability of fluoroperhexiline derivatives towards CYP2D6-mediated metabolism was measured by determination of the rate of compound disappearance when incubated in the presence CYP2D6 recombinant isoform expression systems (Bactosomes™). The percentage of parent compound remaining at each time point (following correction for any loss in the incubations with the control bactosomes) is calculated. cDNA expressed human CYP450 enzyme preparations co-expressed with human NADPH cytochrome P450 reductase (Bactosomes™) are supplied by Cypex Ltd. Bactosomes™ are stored at −80° C. prior to use. […] Incubations are also performed using control bactosomes (no P450 enzymes present) to reveal any non-enzymatic degradation. The final incubation volume is 25 μL. A compound known to be metabolised specifically by CYP2D6 isoform is used as a control compound. Each compound is incubated singly for 0, 5, 15, 30 and 45 min with each isoform. The reactions are stopped by the addition of 50 μL methanol containing internal standard at the appropriate time points. The incubation plates are centrifuged at 2500 rpm for 20 min at 4° C. to precipitate the protein. Following protein precipitation, the sample supernatants are combined in cassettes of up to four compounds and analysed using Cyprotex generic LC-MS/MS conditions. The natural logarithm of the peak area ratio (which has been corrected for any loss in the incubations with the control bactosomes) is plotted against time and the gradient of the line determined. Elimination Rate Constant (k)=(−Gradient).
# [3] = Human liver microsomal (HLM) stability assay; assay type: in vitro ADME
# Protocol: as §1, §2, §3, §4, §5, §6, §7, §8, §9
# T1 sequence (P10635 whole entry): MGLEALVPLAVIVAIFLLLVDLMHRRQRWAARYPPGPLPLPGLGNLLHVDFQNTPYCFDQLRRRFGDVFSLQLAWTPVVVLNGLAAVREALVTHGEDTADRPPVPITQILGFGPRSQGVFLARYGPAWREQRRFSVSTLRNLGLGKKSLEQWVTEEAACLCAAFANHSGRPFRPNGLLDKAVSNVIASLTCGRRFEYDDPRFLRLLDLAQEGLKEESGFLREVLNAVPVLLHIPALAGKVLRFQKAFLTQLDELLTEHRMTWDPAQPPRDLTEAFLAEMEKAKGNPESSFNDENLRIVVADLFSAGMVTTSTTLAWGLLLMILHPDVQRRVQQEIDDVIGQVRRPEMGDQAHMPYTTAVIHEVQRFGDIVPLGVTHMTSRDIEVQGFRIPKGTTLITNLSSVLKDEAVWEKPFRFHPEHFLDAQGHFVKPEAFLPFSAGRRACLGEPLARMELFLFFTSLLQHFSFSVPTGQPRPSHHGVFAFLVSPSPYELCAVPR
smiles,measurement,setting,value
"O[C@H]1CC[C@@H](C(CC2CCCCN2)C2CCCCC2)CC1 (relative stereo) [cis-OH-perhexiline, cis-4-[1-(cyclohexyl)-2-(2-piperidinyl)ethyl]cyclohexanol]",plasma AUC of cis-OH-perhexiline after (−)-perhexiline compared with (+)-perhexiline,[1]; plasma,28 fold
"C1CCC(C(CC2CCCCN2)C2CCCCC2)CC1 (single isomer, unassigned; (+)) [(+)-perhexiline]","ratio of systemic exposure of (+)- to (−)-perhexiline, extensive metabolisers",[1]; EM,1.5
same,"ratio of systemic exposure of (+)- to (−)-perhexiline, poor metabolisers",[1]; PM,2.3
same,"plasma AUC, (+)-perhexiline relative to (−)-perhexiline",[1]; plasma,2.5 fold
"FC1(F)CCC(C(CC2CCCCN2)C2CCC(F)(F)CC2)CC1 (centres unmarked) [FPER-002, 2-(2,2-Bis(4,4-Difluorocyclohexyl)ethyl)piperidine]",microsomal CLint at 3 μM,[2]; read-out: CLint (μL/min/mg protein) RLM,0.8 µL/min/mg
same,half-life at 3 μM,[2]; read-out: T½ (min) RLM,1650 min
same,half-life at 5 μM,"CYP2D6; human, pH 7.4, recombinant CYP2D6 Bactosomes, 5 μM test compound, read-out: T½",2.52 h
same,stability towards CYP2D6 compared with perhexiline (in words),CYP2D6; versus perhexiline,substantial increase in stability towards CYP2D6
same,microsomal CLint at 3 μM,"[3]; both sexes, pH 7.4, human liver microsomes, 3 μM test compound, read-out: CLint (μL/min/mg protein) HLM",0.3 µL/min/mg
same,half-life at 3 μM,"[3]; both sexes, pH 7.4, human liver microsomes, 3 μM test compound, read-out: T½ (min) HLM",4210 min
same,metabolic stability compared with perhexiline (in words),"[3]; human and rat liver microsomes, versus perhexiline",substantial increase in metabolic stability
